From patent publication US20230023009A1, “HETEROCYCLIC COMPOUNDS AND METHODS OF USE THEREOF” (SPARCBIO LLC, priority 2020, published 2023)
Read-outs that look alike come from different tables or passages of the source.

How the values were obtained:
A549 = assay: Cell proliferation assay panel (Cell Titer-Glo, 72 hr); format: cell-based; settings: Homo sapiens
Procedure: (§1) Potency of compounds was determined in cell proliferation assays in a panel of cancer cell lines. Cells were seeded in 384-well plates (Corning, Cat. #3765) at specified densities in 40 μL of culture medium and incubated overnight at 37° C. in a 5% CO2 incubator (culture conditions). With a robotic dispenser, serially diluted test compounds were added in a volume of 20 nL DMSO to wells in the culture plate to achieve the final desired concentrations of test compounds, and the cells were further incubated in culture conditions for 72 hr. The assay was terminated by addition of 25 μL of Cell Titer-Glo reagent (Promega, Madison, Wis.) to each well. Contents were mixed, the plate was incubated for 10 min at room temperature and luminescence was measured. The IC50 value of each test compound was calculated with XLFit curve fitting software. Results are shown in Table 4. ‘+++’ indicates IC50 values≤300 nM, ‘++’ indicates IC50 values between 300 nM-3 μM, and ‘+’ indicates IC50 values≥3 μM.

KYSE-410 = assay: as above; format: cell-based; settings: Homo sapiens
Procedure: as §1

MIA PaCa-2 = assay: as above; format: cell-based; settings: Homo sapiens, MIA PaCa-2, 72 h
Procedure: as §1

NCI-H1373 = assay: as above; format: cell-based; settings: Homo sapiens
Procedure: as §1

NCI-H2030 = assay: as above; format: cell-based; settings: Homo sapiens
Procedure: as §1

NCI-H2122 = assay: as above; format: cell-based; settings: Homo sapiens
Procedure: as §1

NCI-H358 = assay: as above; format: cell-based; settings: Homo sapiens
Procedure: as §1

SW1573 = assay: as above; format: cell-based; settings: Homo sapiens
Procedure: as §1

[1] = system: Phosphorylation of ERK in NCI-H358 cells; assay: pERK assay (Method II, homogeneous TR-FRET); format: cell-based; settings: Homo sapiens, 4 hrs compound treatment
Procedure: Method II. Phosphorylation of ERK was assessed by a homogeneous TR-FRET assay (Advanced phospho-ERK (Thr202/Tyr204) cellular kit; Cat. #64AERPEH, Cisbio). In brief, NCI-H358 cells were seeded in a 384-well culture plate at a density of 6000 cells in 40 μL medium/well and grown overnight at 37° C. and 5% CO2. Each test compound was dosed in duplicate in a 10-dose 3-fold titration starting at 10 μM or 2 μM. The culture plate was then incubated for 4 hrs in the incubator. At the end of the compound treatment, the medium was removed, 35 μL of lysis buffer was added to each well, and the plate was agitated on a plate shaker for 40 mins at 4° C. An antibody cocktail of phospho-ERK1/2 Eu Cryptate antibody and Phospho-ERK1/2 d2 antibody was prepared by separately diluting the antibodies 20-fold with detection buffer and then mixing them together. 3.4 μL of antibody cocktail was dispensed to each well of an empty 384-well white ProxiPlus assay plate (Perkin Elmer), and the plate briefly centrifuged. 13.6 μL of cell lysate was then added to the antibody-containing wells, and the plate was briefly centrifuged and then incubated 2 hrs at room temperature. The plate was read on a fluorescence plate reader (Envision2104, Perkin Elmer), with an excitation wavelength of 337 nm and emission wavelengths of 615 nm and 665 nm. The IC50 value of each test compound was calculated with XLFit curve fitting software. Results are shown in Table 6. ‘+++’ indicates IC50 values≤300 nM, ‘++’ indicates IC50 values between 300 nM-3 μM, and ‘+’ indicates IC50 values≥3 μM.

hERG potassium channel = target: T1, hERG potassium channel (Homo sapiens, UniProt Q12809); assay: hERG inhibition assay (manual whole-cell patch-clamp, CHO cells); format: cell-based
T1 construct: host or cells: CHO
Procedure: Compounds were tested for the potential to inhibit the hERG potassium channel. It is known that inhibition of the hERG channel may cause QT prolongation and increase the risk of cardiac arrhythmias. Therefore, to avoid cardiotoxicity, a compound with relatively low or no inhibition of the channel is desirable. Manual whole-cell patch-clamp recordings were made in Chinese hamster ovary (CHO) cells stably expressing hERG channels (B'Sys, Switzerland). Standard intracellular and bath solutions for hERG current detection were used. Cells were exposed to test compounds at 6 concentrations prepared by 1:3 serial dilution of compounds from a top starting concentration of 30 μM. Currents were elicited by stepping the voltage from a holding potential of −80 mV to −50 mV (20 ms) and then stepping to +40 mV (4 s). A subsequent step to −50 mV (4 s) was used to elicit a tail current which was used for data analysis. Current recordings were made in triplicate using three different cells. Data normalized to the activity in vehicle (0.1 or 0.3% DMSO) were fit with 4-parameter non-linear regression, and IC50 values were determined from the dose-response curves, using GraphPad Prism software.

[2] = system: MIA PaCa-2 subcutaneous xenograft tumors
Procedure: MIA PaCa-2 cells were injected subcutaneously (10×10^6 cells in 0.2 mL of PBS with Matrigel (1:1)) into the right flanks of 6-8-week-old female BALB/c nude mice and allowed to grow until the average tumor size reached 150-200 mm^3. The mice were then stratified into treatment groups of 8 animals and treatment initiated on Day 0. Test compound or vehicle (1% Tween 80, 2% HPMC, and 97% water) was administered orally, once daily, for 14 days with an observational phase to monitor tumor growth post-treatment. Tumor size was measured twice weekly in two dimensions using a caliper, and the volume was expressed in mm^3 using the formula: V=(a×b^2/2) where a and b are the long and short diameters of the tumor, respectively. Tumor Growth Inhibition (TGI) was calculated for each group using the formula: TGI %=(1−Ti/Vi)×100, where Ti is the mean tumor volume of the treatment group on the measurement day, and Vi is the mean tumor volume of the control group on the measurement day. Animal body weight was monitored regularly as an indicator of toxicity. […] Data points represent the group mean, and error bars represent the standard error of the mean (SEM).

[3] = system: NCI-H358 subcutaneous xenograft tumors; assay: NCI-H358 mouse xenograft model
Procedure: NCI-H358 cells were injected subcutaneously (5×10^6 cells in 0.1 mL of PBS) into the right flanks of 6-8-week-old female BALB/c nude mice and allowed to grow until the average tumor size reached 150-200 mm^3. The mice were then stratified into treatment groups of 4-8 animals and treatment initiated on Day 0. Test compound or vehicle (1% Tween 80, 2% HPMC, and 97% water) was administered orally, once daily, for 21 days. Tumor size was measured twice weekly in two dimensions using a caliper, and the volume was expressed in mm^3 using the formula: V=(a×b^2/2) where a and b are the long and short diameters of the tumor, respectively. Tumor Growth Inhibition (TGI) was calculated for each group using the formula: TGI %=(1−Ti/Vi)×100, where Ti is the mean tumor volume of the treatment group on the measurement day, and Vi is the mean tumor volume of the control group on the measurement day. Animal body weight was monitored regularly as an indicator of toxicity. […] Data points represent the group mean, and error bars represent the standard error of the mean (SEM).

T1 sequence (Q12809 whole entry): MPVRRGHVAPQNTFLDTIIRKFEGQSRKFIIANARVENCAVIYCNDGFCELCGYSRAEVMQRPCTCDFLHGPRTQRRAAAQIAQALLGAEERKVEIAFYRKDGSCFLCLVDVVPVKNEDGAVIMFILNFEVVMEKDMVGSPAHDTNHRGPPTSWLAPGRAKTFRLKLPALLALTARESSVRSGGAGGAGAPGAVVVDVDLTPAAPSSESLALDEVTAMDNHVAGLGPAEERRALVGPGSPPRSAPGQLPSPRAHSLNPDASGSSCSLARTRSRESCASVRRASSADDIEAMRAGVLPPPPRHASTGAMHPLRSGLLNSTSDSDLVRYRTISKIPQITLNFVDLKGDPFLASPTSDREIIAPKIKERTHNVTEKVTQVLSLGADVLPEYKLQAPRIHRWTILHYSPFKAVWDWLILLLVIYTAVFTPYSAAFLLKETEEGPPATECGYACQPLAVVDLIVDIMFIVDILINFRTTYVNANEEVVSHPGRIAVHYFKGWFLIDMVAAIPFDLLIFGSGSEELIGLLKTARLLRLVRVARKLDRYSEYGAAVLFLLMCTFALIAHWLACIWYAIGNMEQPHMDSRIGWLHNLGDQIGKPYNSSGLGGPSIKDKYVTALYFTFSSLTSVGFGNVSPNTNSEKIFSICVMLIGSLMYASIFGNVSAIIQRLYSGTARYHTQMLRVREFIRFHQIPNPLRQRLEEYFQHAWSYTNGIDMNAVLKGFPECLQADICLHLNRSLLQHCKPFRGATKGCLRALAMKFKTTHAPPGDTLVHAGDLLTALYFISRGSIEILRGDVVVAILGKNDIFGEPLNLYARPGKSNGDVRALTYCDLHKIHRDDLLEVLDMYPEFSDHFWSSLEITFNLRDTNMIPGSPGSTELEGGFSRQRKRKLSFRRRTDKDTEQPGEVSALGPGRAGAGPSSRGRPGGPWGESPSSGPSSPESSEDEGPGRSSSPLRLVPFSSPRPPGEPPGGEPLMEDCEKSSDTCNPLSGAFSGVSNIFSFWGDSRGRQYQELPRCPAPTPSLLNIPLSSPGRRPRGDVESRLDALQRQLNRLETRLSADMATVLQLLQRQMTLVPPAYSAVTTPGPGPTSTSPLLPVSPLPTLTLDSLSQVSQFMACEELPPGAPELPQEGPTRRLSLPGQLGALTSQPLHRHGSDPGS

## C=C(F)C(=O)N1CCN(c2nc(OC[C@@H]3CCCN3C)nc3c2CO[C@@H](c2cccc4cccc(Cl)c24)C3)C[C@@H]1CC#N (single isomer, unassigned) [43 (Isomer B)]
A549
  IC50: ≥ 3000 nM
KYSE-410
  IC50: ≥ 3000 nM
MIA PaCa-2
  IC50: ≤ 300 nM
NCI-H1373
  IC50: 300 to 3000 nM
NCI-H2030
  IC50: 300 to 3000 nM
NCI-H2122
  IC50: 300 to 3000 nM
NCI-H358
  IC50: ≤ 300 nM
SW1573
  IC50: ≥ 3000 nM
[1]
  IC50: ≤ 300 nM
hERG potassium channel
  IC50: 3.61 µM
[2]; 10 mg/kg orally once daily, Day 14 after treatment start
  TGI: 9.0%
[2]; 30 mg/kg orally once daily, Day 14 after treatment start (day not restated for comparator)
  TGI: 75.5%
[2]; 100 mg/kg orally once daily, Day 14 after treatment start
  TGI: 94.6%
[2]; orally once daily for 14 days
  tolerability (from body weight): well-tolerated
[3]; 10 mg/kg orally once daily, Day 20 after treatment start
  TGI: 15.1%
[3]; 30 mg/kg orally once daily, Day 20 after treatment start (day not restated for comparators)
  TGI: 43.6%
[3]; 100 mg/kg orally once daily, Day 20 after treatment start
  TGI: 94.6%
[3]; 10, 30 and 100 mg/kg orally once daily for 21 days
  tolerability (from body weight): well-tolerated
[3]; none of the mice greater than this, 10, 30 and 100 mg/kg once daily
  weight loss: ≤ 10%
